As a reminder, the Km is the substrate concentration at which the rate is half of its maximum.

This is an account of results in US7977082B2, “Isomaltulose synthases, polynucleotides encoding them and uses therefor” (The University of Queensland of St. Lucia, priority 2001, dated 2011).

The chains are these.
B1: Pantoea dispersa 68J sucrose isomerase (SI), mature, SEQ ID NO: 10, carboxy-terminal 6×His tag (SEQ ID NO: 52) (Pantoea dispersa) (protein)
chain: ATNIQKSADFPIWWKQAVFYQIYPRSFKDSNGDGIGDIPGIIEKLDYLKMLGVDAIWINPHYESPNTDNGYDISDYRKIMKEYGSMADFDRLVAEMNKRGMRLMIDIVINHTSDRHRWFVQSRSGKDNPYRDYYFWRDGKQGQAPNNYPSFFGGSAWQLDKQTDQYYLHYFAPQQPDLNWDNPKVRAELYDILRFWLDKGVSGLRFDTVATFSKIPGFPDLSKAQLKNFAEAYTEGPNIHKYIHEMNRQVLSKYNVATAGEIFGVPVSAMPDYFDRRREELNIAFTFDLIRLDRYPDQRWRRKPWTLSQFRQVISQTDRAAGEFGWNAFFLDNHDNPRQVSHFGDDSPQWRERSAKALATLLLTQRATPFIFQGAELGMTNYPFKNIEEFDDIEVKGFWNDYVASGKVNAAEFLQEVRMTSRDNSRTPMQWNDSVNAGFTQGKPWFHLNPNYKQINAAREVNKPDSVFSYYRQLINLRHQIPALTSGEYRDLDPQNNQVYAYTRILDNEKYLVVVNFKPEQLHYALPDNLTIASSLLENVHQPSLQENASTLTLAPWQAGIYKLN
B2: Klebsiella sp. 14S sucrose isomerase (SI), carboxy-terminal 6×His tag (SEQ ID NO: 52) (Klebsiella planticola) (protein)
chain: APSVNQNIHVHKESEYPAWWKEAVFYQIYPRSFKDTNDDGIGDIRGIIEKLDYLKSLGIDAIWINPHYDSPNTDNGYDISNYRQIMKEYGTMEDFDNLVAEMKKRNMRLMIDVVINHTSDQHPWFIQSKSDKNNPYRDYYFWRDGKDNQPPNNYPSFFGGSAWQKDAKSGQYYLHYFARQQPDLNWDNPKVREDLYAMLRFWLDKGVSSMRFDTVATYSKIPGFPNLTPEQQKNFAEQYTMGPNIHRYIQEMNRKVLSRYDVATAGEIFGVPLDRSSQFFDPRRHELNMAFMFDLIRLDRDSNERWRHKSWSLSQFRQIISKMDVTVGKYGWNTFFLDNHDNPRAVSHFGDDRPQWREASAKALATITLTQRATPFIYQGSELGMTNYPFRQLNEFDDIEVKGFWQDYVQSGKVTATEFLDNVRLTSRDNSRTPFQWNDTLNAGFTRGKPWFHINPNYVEINAEREETREDSVLNYYKKMIQLRHHIPALVYGAYQDLNPQDNTVYAYTRTLGNERYLVVVNFKEYPVRYTLPANDAIEEVVIDTQQQATAPHSTSLSLSPWQAGVYKLR

“And” between values parts separate entries of the source, which are not always exact repeats. Equal values may be shown once. Residues, ends and D or L forms follow the SMILES beside them.

One data set concerns strain 68J. Kind of data set: Growth of strain 68J with different carbon sources (BIOLOG GN). In kind it is cell-based, Pantoea dispersa. Set-up: scale not given here. To be noted: relative values; 96-well plates (BIOLOG GN). On the procedure:
The morphological, cultural and biochemical features of strain 68J were determined in tests using E. coli (Top 10), K. oxytoca (JMP4505), E. rhapontici (WAC2928) as positive/negative controls. Gram stain, fermentation, catalase activity, pigment observation, and Simon's citrate tests were conducted according to Singleton (1999, Bacteria in Biology, Biotechnology and Medicine (5th edition). Wiley, New York). Oxidase activity by Kovac's reagent, indole production by Ehrlich's indole test, methyl red response, Voges-Proskauer reaction in Clark and Lub's medium, urea hydrolysis in Christensen's urea, lysine decarboxylase, ornithine decarboxylase and gelatin liquefaction were tested as described by MacFaddin (1979, Biochemical Tests for Identification of Medical Bacteria. Williams & Wilkins, Baltimore). Morphology, capsules and motility were observed microscopically. Carbon source utilization was tested in 96-well plates (BIOLOG GN).
2,3-butynediol: the Growth was determined as 1. On to `C[N+](C)(C)CC(O)CC(=O)[O-]` (racemic) [D,L-carnitine], for which the Growth is reported as −10. Regarding `CC(O)C(=O)O` (racemic) [D,L-lactic acid], the Growth was 365. As to `O=P(O)(O)OCC(O)CO` (racemic) [D,L-α-glycerol phosphate], the Growth is −8. The molecule `NCCO` [2-amino ethanol] returned a Growth of −4.

Take `OC[C@@H](O)C(O)[C@H](O)CO` [D-arabitol]: the Growth is listed as −11. `O=C1O[C@@H]([C@H](O)CO)[C@H](O)[C@H]1O` [D-galactonic acid lactone] yielded a Growth of −7.

Consider `O=C(O)[C@H]1OC(O)[C@H](O)[C@@H](O)[C@@H]1O` (stereo partly drawn) [D-glucoronic acid], for which the Growth was 6.

The molecule `N[C@@H](C(=O)O)[C@@H](O)[C@H](O)[C@H](O)CO` [D-glucosaminic acid] returned a Growth of 1. Regarding `OC[C@H]1O[C@H](OCC2O[C@@H](O)[C@H](O)[C@@H](O)[C@@H]2O)[C@H](O)[C@@H](O)[C@H]1O` (stereo partly drawn) [D-melibiose], the Growth is listed as 6. As for `OC[C@H]1O[C@H](OC[C@H]2O[C@H](O[C@]3(CO)O[C@H](CO)[C@@H](O)[C@@H]3O)[C@H](O)[C@@H](O)[C@@H]2O)[C@H](O)[C@@H](O)[C@H]1O` [D-raffinose], the Growth worked out at 330. Molecule `OC[C@H]1O[C@H](O[C@H]2O[C@H](CO)[C@@H](O)[C@H](O)[C@H]2O)[C@H](O)[C@@H](O)[C@@H]1O` [D-trehalose] displayed a Growth of 619. `O=P(O)(O)O[C@H]1O[C@H](CO)[C@@H](O)[C@H](O)[C@H]1O` [Glucose-1-phosphate] yielded a Growth of 356. `NCC(=O)N[C@@H](CC(=O)O)C(=O)O` [Glycyl-L-aspatic acid] (H-Gly-Asp-OH) showed a Growth of −8.

For the molecule `C[C@@H](O)[C@H](N)C(=O)O` [L-theronine], the Growth is −12. On the same count and under the same terms, the result for `O=C(CO)[C@@H](O[C@H]1O[C@H](CO)[C@@H](O)[C@H](O)[C@H]1O)[C@H](O)[C@H](O)CO` [Turanose] reads 23; that for `OC[C@H]1O[C@@H]2O[C@H]3[C@H](O)[C@@H](O)[C@@H](O[C@H]4[C@H](O)[C@@H](O)[C@@H](O[C@H]5[C@H](O)[C@@H](O)[C@@H](O[C@H]6[C@H](O)[C@@H](O)[C@@H](O[C@H]7[C@H](O)[C@@H](O)[C@@H](O[C@H]1[C@H](O)[C@H]2O)O[C@@H]7CO)O[C@@H]6CO)O[C@@H]5CO)O[C@@H]4CO)O[C@@H]3CO` [a-cyclodextrin], 9; that for `O=C(O)/C=C(/CC(=O)O)C(=O)O` [cis-aconitic acid], 122. `OC[C@@H](O)[C@@H](O)CO` [i-erythritol]: the Growth was 0. As to `O[C@H]1[C@H](O)[C@@H](O)[C@H](O)[C@@H](O)[C@H]1O` [m-inositol], the Growth is 611.

`O=C(O)CCC(=O)C(=O)O` [α-keto glutanic acid] had a Growth of 91. On the same count and under the same terms, the result for `CO[C@@H]1O[C@H](CO)[C@@H](O)[C@H](O)[C@H]1O` [β-methyl D-glucosidase] reads 684; that for `O=C(O)Cc1ccc(O)cc1` [ρ-hydroxy phenylacetic acid], 5; that for Tween40, 25. Molecule α-D-lactose lactulose yielded a Growth of 12.

The next data set has as its system P. dispersa 68J. Kind of data set: Growth in BP medium with different sugars. To be noted: 2% sugar added to BP medium, 18 h incubation at 30°C. It counts as cell-based. On the procedure: Isomaltulose production was tested using cells grown in LB and in a basal peptone medium (BP, comprising 1% BBL gelysate peptone and 0.5% NaCl, adjusted to pH 7.0 prior to autoclaving). Glucose, fructose, sucrose, lactose, maltose or isomaltulose was added to the cooled media, from a filter-sterilised stock. The media containing 4% (w/v) sucrose are referred to as SLB and SBP respectively.
Inoculum of 100 μL from a culture grown for 12 h in LB medium was added to 25 mL growth medium in a 250 mL flask. After 18 h at 30° C. on a shaker at 225 rpm, OD600 was used to measure growth. Cultures were diluted with growth medium to OD600=1.50 (approximately half the cell density of a saturated culture in SLB). Aliquots of 1 mL were harvested by centrifugation at 5000×g for 10 min and washed three times with 0.1 M citrate/phosphate buffer (pH 6.0). The cell pellets were resuspended in 0.4 mL of 0.1 M citrate/phosphate buffer (pH 6.0) containing 50% sucrose (w/v). Culture supernatant was filtered through a 0.2 μm filter (Pall Acrodisc), and 0.1 mL was mixed with 0.4 mL of 0.1 M citrate/phosphate buffer (pH 6.0) containing 50% sucrose (w/v), for parallel testing of culture filtrate and harvested cells in the SI assay.
As to `OC[C@H]1O[C@H](O[C@H]2[C@H](O)[C@@H](O)[C@H](O)O[C@@H]2CO)[C@H](O)[C@@H](O)[C@@H]1O` [Maltose], the “effect on growth of P. dispersa 68J” value is listed as “little effect”.

Turning to `OC[C@H]1O[C@@](CO)(O[C@H]2O[C@H](CO)[C@@H](O)[C@H](O)[C@H]2O)[C@@H](O)[C@@H]1O` [Sucrose], the “effect on growth of P. dispersa 68J” value is listed as “supported faster growth”. Same read-out and setting: then `OC[C@H]1O[C@@H](O[C@H]2[C@H](O)[C@@H](O)C(O)O[C@@H]2CO)[C@H](O)[C@@H](O)[C@H]1O` (stereo partly drawn) [lactose], with “little effect”.

Another data set has as its system E. rhapontici sucrose isomerase (SI).
Assay: not given
The conditions noted are these: Nagai et al., 1994; Véronèse and Perlot, 1998; cited from earlier work.
Regarding `OC[C@H]1OC(O)(CO)[C@@H](O)[C@@H]1O` (stereo partly drawn) [fructose], the Inhibition of activity result is given as “not”.

For a further data set, the system named is K. plymuthica sucrose isomerase (SI).
Assay: not given
To be noted: Nagai et al., 1994; Véronèse and Perlot, 1998; cited from earlier work.
Regarding `OC[C@H]1OC(O)(CO)[C@@H](O)[C@@H]1O` (stereo partly drawn) [fructose], the Inhibition of activity entry is recorded as “not”.

A further data set relates to P. rubrum sucrose isomerase (SI).
Assay: not given
The conditions noted are these: Nagai et al., 1994; Véronèse and Perlot, 1998; cited from earlier work.
Regarding `OC[C@H]1OC(O)(CO)[C@@H](O)[C@@H]1O` (stereo partly drawn) [fructose], the Inhibition of activity result was “not”.

For another data set, the system named is P. mesoacidophila sucrose isomerase (SI).
Assay: not given
The conditions noted are these: Nagai et al., 1994; Véronèse and Perlot, 1998; cited from earlier work.
For the molecule `OC[C@H]1OC(O)(CO)[C@@H](O)[C@@H]1O` (stereo partly drawn) [fructose], the Inhibition of activity result is listed as “not”.

Substrate in the next data set: OC[C@H]1O[C@@](CO)(O[C@H]2O[C@H](CO)[C@@H](O)[C@H](O)[C@H]2O)[C@@H](O)[C@@H]1O
Kind of data set: Sucrose isomerase kinetics, purified SI from P. dispersa 68J (isomaltulose production), with or without glucose/fructose. It counts as biochemical, Pantoea dispersa 68J. The conditions noted are these: other: sucrose, pH 6.0, 30° C., Lineweaver and Burk. On the procedure: (§1) The pET24b vector introduces a carboxy-terminal 6×His tag (SEQ ID NO: 52) on expressed proteins, which were purified by adsorption to Ni-NTA agarose (Qiagen) and elution with 25 mM NaH2PO4, 150 mM NaCl, 125 mM imidazole buffer (pH8.0) following the manufacturer's instructions. For storage, the eluted solution was diluted with 50% glycerol. The purity of SI proteins was tested by SDS-PAGE as described below. A batch procedure using Ni-NTA agarose in suspension yielded predominantly (80-95%) SI with a background of several other protein bands. A procedure using Ni-NTA agarose in adsorption columns yielded preparations containing a single protein band. […]
(§2) Enzyme activities were measured by incubating 5 μl of purified enzyme with 95 μL of sucrose solution at a final concentration of 584 mM in 0.1 M citrate/phosphate buffer (pH 6.0) at 30° C. Sugar profiles in the reaction mix were analysed at intervals by CE as described previously. […]
(§3) SI activity was measured by incubating the purified enzyme with different sucrose concentrations (3, 6, 15, 58, 146, 292, 584, 877, 1169 and 1461 mM) under standard assay conditions, and also with addition of glucose, fructose or both to a final concentration of 277 mM. Data were analyzed according to the method of Lineweaver and Burk (Voet and Voet, 1995) to calculate Km and Vmax values.
On to B1, for which the Km was 46.6 mM and 47 mM; the Vmax is given as 636.9 U mg^−1.

Substrate in another data set: OC[C@H]1O[C@@](CO)(O[C@H]2O[C@H](CO)[C@@H](O)[C@H](O)[C@H]2O)[C@@H](O)[C@@H]1O
Kind of data set: Sucrose isomerase kinetics, purified SI from Klebsiella sp. 14S (isomaltulose production), with or without glucose/fructose. It counts as biochemical. The conditions noted are these: other: sucrose, pH 6.0, 30° C., Lineweaver and Burk. On the procedure:
as §1, §2, §3
As for B2, the Km is on record as 81.6 mM and the Vmax was 99.8 U mg^−1.
